{
  "source": "patent US20190337924A1",
  "about": "“SUBSTITUTED HYDANTOIN AND THIOHYDANTOIN DERIVATIVES AS ANDROGEN RECEPTOR ANTAGONISTS” (Janssen Pharmaceutica NV, priority 2016, published 2019)",
  "note": "Where a name gives a salt, the structure may show the parent alone.",
  "data": [
    {"smiles": "CC1(C)C(=O)N(c2ccc(C#N)c(Cl)c2)C(=S)N1c1ccc(OC2CCNCC2)cc1", "note": "(as salt: hydrochloride) [Compound 7, 2-Chloro-4-(4,4-dimethyl-5-oxo-3-(4-(piperidin-4-yloxy)phenyl)-2-thioxoimidazolidin-1-yl)benzonitrile hydrochloride]", "values": [
      {"measurement": "melting point", "result": "> 300", "unit": "°C"}
    ]},
    {"smiles": "CN1CCC(Oc2ccc(N3C(=S)N(c4ccc(C#N)c(Cl)c4)C(=O)C3(C)C)cc2)CC1", "note": "(as salt: hydrochloride) [Compound 8, 2-Chloro-4-(4,4-dimethyl-3-(4-((1-methylpiperidin-4-yl)oxy)phenyl)-5-oxo-2-thioxoimidazolidin-1-yl)benzonitrile hydrochloride]", "values": [
      {"measurement": "melting point", "result": 251.7, "unit": "°C"}
    ]},
    {"smiles": "CC1(C)C(=O)N(c2ccc(C#N)c(Cl)c2)C(=S)N1c1ccc(OC2CCNCC2)nc1", "note": "(as salt: hydrochloride) [Compound 9, 2-Chloro-4-(4,4-dimethyl-5-oxo-3-(6-(piperidin-4-yloxy)pyridin-3-yl)-2-thioxoimidazolidin-1-yl)benzonitrile hydrochloride]", "values": [
      {"measurement": "melting point", "result": 216.5, "unit": "°C"}
    ]},
    {"smiles": "CN1CCC(Oc2ccc(N3C(=S)N(c4ccc(C#N)c(Cl)c4)C(=O)C3(C)C)cn2)CC1", "note": "(as salt: hydrochloride) [Compound 10, 2-Chloro-4-(4,4-dimethyl-3-(6-((1-methylpiperidin-4-yl)oxy)pyridin-3-yl)-5-oxo-2-thioxoimidazolidin-1-yl)benzonitrile hydrochloride]", "values": [
      {"measurement": "melting point", "result": 220.9, "unit": "°C"}
    ]},
    {"smiles": "N#Cc1ccc(N2C(=O)C3(CCC3)N(c3ccc(OC4CCNCC4)nc3)C2=S)cc1Cl", "note": "(as salt: hydrochloride) [Compound 23, 2-Chloro-4-(8-oxo-5-(6-(piperidin-4-yloxy)pyridin-3-yl)-6-thioxo-5,7-diazaspiro[3.4]octan-7-yl)benzonitrile hydrochloride]", "values": [
      {"measurement": "melting point", "result": 260.1, "unit": "°C"}
    ]},
    {"smiles": "CN1CCC(Oc2ccc(N3C(=S)N(c4ccc(C#N)c(Cl)c4)C(=O)C34CCC4)cn2)CC1", "note": "(as salt: hydrochloride) [Compound 24, 2-Chloro-4-(5-(6-((1-methylpiperidin-4-yl)oxy)pyridin-3-yl)-8-oxo-6-thioxo-5,7-diazaspiro[3.4]octan-7-yl)benzonitrile hydrochloride]", "values": [
      {"measurement": "melting point", "result": 239, "unit": "°C"}
    ]}
  ]
}
